Key:
[1] = DRUGMATRIX: Serotonin (5-Hydroxytryptamine) 5-HT3 radioligand binding (ligand: [3H] GR-65630); type: cell membranes, Membrane; details: hek293; Not Active = under 50% inhibition at 10 µM
[2] = target: 5-hydroxytryptamine receptor 6 (Homo sapiens, UniProt P50406); type: cell membranes, HeLa, Membrane; details: hela; also: in other assays of this panel Not Active means under 50% inhibition at 10 µM
[3] = target: T1, 3-hydroxy-3-methylglutaryl-coenzyme A reductase (Homo sapiens, UniProt P04035); parameters: species or system Escherichia coli;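 also: enzyme inhibition assay of HMG-CoA reductase using radiolabeled [14C]HMG-CoA as substrate; in other assays of this panel Not Active means under 50% inhibition at 10 µM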
T1 sequence (P04035 whole entry): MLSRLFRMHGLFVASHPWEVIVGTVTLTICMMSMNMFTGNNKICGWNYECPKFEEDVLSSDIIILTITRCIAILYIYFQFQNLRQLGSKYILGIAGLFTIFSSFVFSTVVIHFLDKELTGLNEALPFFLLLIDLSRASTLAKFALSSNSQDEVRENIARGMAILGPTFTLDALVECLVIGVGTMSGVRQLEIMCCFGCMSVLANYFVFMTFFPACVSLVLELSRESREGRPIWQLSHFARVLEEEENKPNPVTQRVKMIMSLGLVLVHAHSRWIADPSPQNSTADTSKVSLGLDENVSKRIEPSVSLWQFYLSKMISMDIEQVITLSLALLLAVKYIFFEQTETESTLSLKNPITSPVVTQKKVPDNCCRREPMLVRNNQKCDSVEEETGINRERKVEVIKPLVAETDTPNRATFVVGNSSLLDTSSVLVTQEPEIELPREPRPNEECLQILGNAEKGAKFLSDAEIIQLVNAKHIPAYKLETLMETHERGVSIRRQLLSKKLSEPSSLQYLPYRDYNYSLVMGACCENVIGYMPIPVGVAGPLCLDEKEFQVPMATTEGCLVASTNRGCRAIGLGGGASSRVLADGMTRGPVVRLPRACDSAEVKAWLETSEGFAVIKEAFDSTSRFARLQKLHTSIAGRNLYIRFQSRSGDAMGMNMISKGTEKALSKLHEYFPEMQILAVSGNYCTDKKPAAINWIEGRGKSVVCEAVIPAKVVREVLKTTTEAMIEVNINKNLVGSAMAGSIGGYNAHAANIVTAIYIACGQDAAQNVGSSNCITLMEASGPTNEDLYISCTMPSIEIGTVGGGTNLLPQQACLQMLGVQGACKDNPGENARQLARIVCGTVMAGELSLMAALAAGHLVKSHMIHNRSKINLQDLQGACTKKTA

[4] = target: Protein phosphatase 3 catalytic subunit alpha (Homo sapiens, UniProt Q08209); parameters: species or system Escherichia coli;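 also: inhibition of calcineurin (PP2B) enzyme activity, measured with DiFMUP as the substrate; in other assays of this panel Not Active means under 50% inhibition at 10 µM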
[5] = target: Insulin receptor (Rattus norvegicus, UniProt P15127); type: cell membranes, Wistar, Liver, Membrane; also: in other assays of this panel Not Active means under 50% inhibition at 10 µM
[6] = target: T2, Type-2 angiotensin II receptor (Homo sapiens, UniProt P50052); type: cell-based; details: cho-k1; also: in other assays of this panel Not Active means under 50% inhibition at 10 µM
T2 sequence (P50052 whole entry): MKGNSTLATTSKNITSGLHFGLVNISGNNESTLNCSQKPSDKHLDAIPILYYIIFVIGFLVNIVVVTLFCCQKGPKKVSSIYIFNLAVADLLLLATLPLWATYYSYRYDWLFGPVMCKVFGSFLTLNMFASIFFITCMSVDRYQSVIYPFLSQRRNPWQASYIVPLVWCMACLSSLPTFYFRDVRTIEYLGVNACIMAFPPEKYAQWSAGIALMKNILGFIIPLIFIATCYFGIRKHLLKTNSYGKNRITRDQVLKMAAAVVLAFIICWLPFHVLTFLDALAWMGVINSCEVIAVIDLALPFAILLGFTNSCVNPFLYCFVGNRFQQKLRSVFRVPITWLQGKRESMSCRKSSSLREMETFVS

[7] = DRUGMATRIX: ATPase, Na+/K+ enzyme inhibition (substrate: ATP); type: tissue-based, Sus scrofa, Heart; details: Not Active = under 50% inhibition at 10 µM

Sequence of Insulin receptor (P15127 27-759 limits assumed): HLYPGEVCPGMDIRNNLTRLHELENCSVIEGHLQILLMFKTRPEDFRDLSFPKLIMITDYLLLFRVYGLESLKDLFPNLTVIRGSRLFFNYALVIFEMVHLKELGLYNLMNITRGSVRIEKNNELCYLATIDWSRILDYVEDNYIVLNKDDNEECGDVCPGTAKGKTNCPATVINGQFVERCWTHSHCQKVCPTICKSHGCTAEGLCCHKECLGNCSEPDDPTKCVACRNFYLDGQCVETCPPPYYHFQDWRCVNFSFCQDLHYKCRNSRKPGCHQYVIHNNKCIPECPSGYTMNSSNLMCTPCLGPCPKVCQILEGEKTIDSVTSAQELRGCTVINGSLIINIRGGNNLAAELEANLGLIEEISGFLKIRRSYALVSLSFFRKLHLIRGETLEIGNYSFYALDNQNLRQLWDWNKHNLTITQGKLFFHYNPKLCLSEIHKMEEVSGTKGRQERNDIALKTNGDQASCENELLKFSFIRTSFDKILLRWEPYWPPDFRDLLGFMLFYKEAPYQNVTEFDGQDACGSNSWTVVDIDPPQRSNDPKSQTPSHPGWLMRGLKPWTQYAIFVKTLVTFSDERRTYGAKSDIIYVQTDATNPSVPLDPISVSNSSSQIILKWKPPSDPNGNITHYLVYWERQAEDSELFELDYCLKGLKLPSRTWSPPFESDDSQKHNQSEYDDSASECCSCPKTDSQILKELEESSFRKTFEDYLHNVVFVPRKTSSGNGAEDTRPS
Sequence of Insulin receptor (P15127 764-1383 limits assumed): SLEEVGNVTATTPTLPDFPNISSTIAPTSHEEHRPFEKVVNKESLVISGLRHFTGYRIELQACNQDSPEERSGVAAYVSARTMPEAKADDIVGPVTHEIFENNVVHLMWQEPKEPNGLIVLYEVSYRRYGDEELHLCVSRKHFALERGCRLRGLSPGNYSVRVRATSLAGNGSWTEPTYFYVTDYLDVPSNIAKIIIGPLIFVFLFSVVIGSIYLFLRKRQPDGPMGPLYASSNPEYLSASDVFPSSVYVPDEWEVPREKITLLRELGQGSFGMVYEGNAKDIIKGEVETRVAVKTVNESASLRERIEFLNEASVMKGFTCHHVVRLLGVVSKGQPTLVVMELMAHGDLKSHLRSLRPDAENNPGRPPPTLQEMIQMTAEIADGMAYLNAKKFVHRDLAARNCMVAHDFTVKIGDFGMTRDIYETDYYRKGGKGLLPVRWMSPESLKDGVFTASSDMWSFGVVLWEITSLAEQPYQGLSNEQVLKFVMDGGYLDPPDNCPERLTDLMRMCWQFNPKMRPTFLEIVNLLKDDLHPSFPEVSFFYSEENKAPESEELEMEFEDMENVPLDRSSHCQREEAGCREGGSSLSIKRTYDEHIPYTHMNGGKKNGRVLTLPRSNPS
Sequence of 5-hydroxytryptamine receptor 6 (P50406 whole entry): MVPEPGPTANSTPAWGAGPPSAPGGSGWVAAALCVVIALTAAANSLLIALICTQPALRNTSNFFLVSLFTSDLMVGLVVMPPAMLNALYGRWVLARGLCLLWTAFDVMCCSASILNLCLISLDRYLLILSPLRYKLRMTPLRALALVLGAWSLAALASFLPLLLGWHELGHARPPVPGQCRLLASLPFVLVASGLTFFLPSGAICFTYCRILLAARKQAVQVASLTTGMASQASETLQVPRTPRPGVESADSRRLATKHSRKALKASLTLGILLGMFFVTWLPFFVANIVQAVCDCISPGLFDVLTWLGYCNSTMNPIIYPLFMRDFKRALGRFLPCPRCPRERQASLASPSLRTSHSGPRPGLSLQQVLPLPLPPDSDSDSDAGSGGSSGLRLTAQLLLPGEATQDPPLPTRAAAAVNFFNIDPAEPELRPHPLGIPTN

C1CCN2C[C@@H]3C[C@@H](CN4CCCC[C@@H]34)[C@H]2C1 [SPARTEINE]
Not Active: IC50 [1] | Ki [1] | IC50 [2] | IC50 [3] | IC50 [4] | IC50 [5] | IC50 [6] | IC50 [7] | Ki [7]

From ChEMBL document CHEMBL1909046, “DrugMatrix in vitro pharmacology data”
